Measurements published in patent publication US4970162A, “Human-mouse hybrid cell line expressing monocyte-macrophage properties” (The United States of America as represented by the …, priority 1985, dated 1990).

How the values were obtained:
macrophage chemotaxis = details: cited from earlier work
WBC264-9 cells = experiment: chemotaxis of WBC264-9 cells in 48-well microchemotaxis chamber; type: cell-based, human-mouse hybrid
Description: (§1) Chemotaxis by the cell lines was measured in a 48-well microchemotaxis chamber (Neuro Probe, Inc., Cabin John, Md.) with a 10 μm thick Nuclepore polycarbonate membrane coated with polyvinylpyrrolidone and containing 5 μm pores as described by Aksamit, et al., J. Immunol 126:2194 (1981). Upper wells contained 50,000 cells in MEM with 10% heat-inactivated fetal calf serum, and lower wells contained attractant in RPMI-1640 (GIBCO, Grand Island, N.Y.). […] EAMS was prepared as described by Aksamit et al., supra. Cells in the chemotaxis chamber were allowed to migrate for 4 hrs at 37° C. in an atmosphere of 5% CO2 and 95% air. The top cells were wiped off the filter, and cells on the bottom were stained in Diff-Quik (Harleco, Gibbstown, N.J.). Chemotaxis was quantified by measurement of the optical density of the migrated cells.

RAW264 cells = experiment: chemotaxis of RAW264 cells; type: cell-based; details: mouse RAW264 cells
Description: as §1

Molecule | inhibition of macrophage chemotaxis (macrophage chemotaxis) | chemotaxis to FMLP (WBC264-9 cells; 30 nM FMLP, cell line 9 (WBC264-9), for 20 passages, FIG. 1) | concentration of optimal chemotactic response (WBC264-9 cells; WBC264-9 cells, 4 hrs at 37° C., FIG. 2) | chemotaxis to FMLP (RAW264 cells)
pertussis toxin | potent inhibitor | – | – | –
CSCC[C@H](NC=O)C(=O)N[C@@H](CC(C)C)C(=O)N[C@@H](Cc1ccccc1)C(=O)O [FMLP, N-formylmethionine-leucine-phenylalanine] | – | high level of chemotaxis | approximately 3×10^-8 M | do not exhibit chemotaxis
